Data reported in patent US20100016546A1, “Therapeutic Peptide-Polysaccharide Biomaterials” (priority 2005, published 2010).
Like-named read-outs stand apart in the source and are kept apart here. No end group written: not given here.

Experiments:
E. coli BL21(DE3) [1] = type: cell-based; conditions: for Measured Potency: Free Peptide (LC90) / Measured Potency: Peptide/Agarose Conjugate (LC90): E. coli (BL21 (DE3)); for Measured Potency: Peptide/Agarose Conjugate (LC90): effective peptide concentration
Procedure: Overall, antimicrobial activity can be evaluated by incubating small cultures of E. coli (BL21) at 37° C. with agitation (e.g., ˜3 to ˜5 hrs) in minimal media in the presence/absence of varied amounts of peptide conjugate or free peptide. Aliquots can be collected at predetermined time points to determine the cell density. One OD600 of the solution=2×10^9 CFU/ml. Correlating changes in cell density between cultures incubated with varied amounts of conjugate and cultures grown in the absence of conjugates can provide a means of evaluating the antimicrobial potency of the varied constructs. Assays such as this one are known to be used in evaluating the potency of antimicrobial peptidomimetics and biomaterials.
In one embodiment, the antimicrobial activity of the free peptides and conjugates have been assayed against E. coli BL21(DE3) cultures. In this assay, the bacteria (at ˜1×10^6 CFU/ml) are incubated for 2 hours at 37° C. in 10 mM phosphate (e.g., Na2HPO4) buffer (pH ˜7.5) with varied concentrations of peptide or peptide-conjugate. After this time, 20 μl aliquots of each culture and serial dilutions of the culture are plated onto LB agar plates and incubated over night at 37° C. The number of colonies on these plates is then counted and the survival percentage is determined relative to a control culture. The example contained no peptide.
In another embodiment, a stock solution containing 1 mg of peptide per ml solution may be prepared. Using the stock peptide (1 mg/ml) solution, assays may be prepared (volume of ˜100 μl) at 1 μg/ml, 10 μg/ml, and 100 μg/ml of free peptide (e.g., HBD-332-45). In the control sample, 10 μl of 100 mM phosphate buffer, 80 μl of sterile water and 10 μl of cell cultures may be combined and incubated without peptide for two hours at 37° C. After two hours incubation, 20 μl aliquots of the above solutions, and 1:10, and 1:100 dilutions of each may be plated in LB-agar plates and incubated over night at 37° C.
In another embodiment, peptide conjugate (e.g., HBD-332-45-agarose) with a loading of 3.82 μg of peptide/1 μl of resin may also be assayed at effective peptide concentrations of 1 μg/ml, 10 μg/ml, 25 μg/ml, 50 μg/ml, 75 μg/ml and 100 μg/ml. For example, an effective peptide concentration of 100 μg/ml of suspension may be prepared by using 52.2 μl of a 50% suspension of 3.82 μg/μl of peptide suspension (100 μg×[1 μl/3.82 μg]=26.1 μl). Samples containing varying concentrations of peptide conjugate may be combined with 10 μl of 100 mM phosphate buffer having a pH of about 7.5, 10 μl of cell cultures (˜1×10^7 CFU/ml), and the required volume of sterile water to bring a total volume of 100 μl. This combination may be incubated at 37° C. with agitation for two hours. After incubation, 20 μl of each cell culture and 1:10 and 1:100 dilutions of each cell culture may be plated on LB-agar plates and incubated at 37° C. overnight. Similar protocols may be used to evaluate the antimicrobial activity of the HBD-336-45 peptide and corresponding conjugate. […]
The results of the antimicrobial assay using free HBD-332-45 and agarose conjugate can be seen in FIG. 17. Antimicrobial activity of free HBD-332-45 is given on the left and that of the HBD-332-45 peptide-conjugate is shown on the right. E. coli at 1×10^6 CFU/ml were incubated with varied peptide concentrations (free peptide and peptide conjugate). Serial dilutions (0.1× and 0.01×) of cell cultures in all plates are shown across the figure.

E. coli BL21(DE3) [2] = conditions: cited from earlier work
E. coli = conditions: free peptide; cited from earlier work

RGRKSSRRKK-OH [HBD-336-45, RGRKSSRRKK]
reduction in the number of colonies (E. coli BL21(DE3) [1]; free peptide, 1 μg/ml): ~67%
reduction in the number of colonies (E. coli BL21(DE3) [1]; free peptide, 10 μg/ml): ~97%
Measured Potency: Free Peptide (LC90) (E. coli BL21(DE3) [1]; free peptide): 2.23 µg/mL
Measured Potency: Peptide/Agarose Conjugate (LC90) (E. coli BL21(DE3) [1]): >100 μg/m μg/ml
Reported Potency: Free Peptide (LC90) (E. coli BL21(DE3) [2]): ~4 µg/mL

RGRRSSRRKK-NH2 [HBD-336-45(Rev2), RGRRSSRRKK-NH2]
Measured Potency: Free Peptide (LC90) (E. coli BL21(DE3) [1]; free peptide): 0.15 µg/mL
Measured Potency: Peptide/Agarose Conjugate (LC90) (E. coli BL21(DE3) [1]): ~26 µg/mL

KSSTRGRKSSRRKK-OH [HBD-332-45, KSSTRGRKSSRRKK]
Measured Potency: Peptide/Agarose Conjugate (LC50) (E. coli BL21(DE3) [1]; Escherichia coli, 2 h, pH 7.5): ~10 μg/ml (LC50)
bacteria killed (E. coli BL21(DE3) [1]; free peptide, 1 μg/ml, E. coli 1×10^6 CFU/ml, 2 h): ~93%
microbicidal efficiency (E. coli BL21(DE3) [1]; free peptide, 10 μg/ml): > 99%
microbicidal efficiency (E. coli BL21(DE3) [1]; free peptide, 100 μg/ml): > 99%
Measured Potency: Free Peptide (LC90) (E. coli BL21(DE3) [1]; free peptide): 0.20 µg/mL
Measured Potency: Peptide/Agarose Conjugate (LC90) (E. coli BL21(DE3) [1]): ~75 µg/mL
antimicrobial activity against E. coli (E. coli): 1 ± 0.1 mg/mL
Reported Potency: Free Peptide (LC90) (E. coli BL21(DE3) [2]): ~1 µg/mL
